Laboratory results taken from patent US20170348337A1, “MULTIFUNCTIONAL MEMBRANE-ACTIVE AMINOGLYCOSIDE-PEPTIDE CONJUGATES” (priority 2014, published 2017).

Legend:
[1] = system: S. aureus S113 persister cells; assay: persister cell plate killing assay; assay type: cell-based, Staphylococcus aureus; conditions: 1.5 h
Procedure: Procedure for preparing S. aureus SA113 and E. coli Dh5α persister cells were based on previous protocols. Cells from freshly streaked agar plates were inoculated in 1 mL TSB and incubated 16 h at 37° C. in a shaker incubator to obtain stationary phase cultures. Non-persister cells were eliminated by adding ampicillin to a final concentration of 100 μg/mL, followed by 3 h incubation at 37° C.
S. aureus cells were diluted 10× into 10 mM Pipes at pH 7.4 buffer for a bacteria stock solution of roughly 10^9 CFU/mL. 20 μL S. aureus suspension was introduced into 180 μL Pipes buffer containing various concentrations of antibiotic (Pentobra, tobramycin) in 96 well plates for a total of ˜10^8 CFU/well. The plates were sealed with parafilm, loaded onto microplate shakers and placed in 37° C. incubator for 1.5 h. After incubation, 10-fold serial dilutions were made in Pipes buffer. Half of each dilution (100 μL) was spotted onto LB agar plates and incubated overnight at 37° C. to yield visible colonies. The S. aureus persister assays were performed in triplicate. The data shown are averages from two independent trials and were representative of the three assays.
The bactericidal effects of Pentobra against persistent bacteria were investigated with plate killing assays. […]

[2] = system: P. acnes laboratory strain ATCC 6919; assay: P. acnes CFU assay, laboratory strain; assay type: cell-based, Propionibacterium acnes
S. aureus = assay: antimicrobial activity (MIC) of P-L-A conjugates; assay type: cell-based

NC[C@H]1O[C@H](O[C@H]2[C@H](O)[C@@H](O[C@H]3O[C@H](CO)[C@@H](O)[C@H](N)[C@H]3O)[C@H](N)C[C@@H]2N)[C@H](N)C[C@@H]1O [tobramycin]
reduction in CFU ([1]; range of tested concentrations): less than one
killing activity against persister cells ([1]; varying concentrations): little susceptibility
killing activity [2]: not strongly bactericidal
reduction in CFU ([2]; 52 μM, 3 h): less than ten
MIC (μM) S. aureus (mid-log) (S. aureus): 3.12 μM
